pIC50: −log10 of the molar value. Each block holds one compound with its values, some of them ahead of it. Active and inactive are the calls of the source. No cut-off for these calls is given here. Numbered stars: 1 amine (or outer) side, 2 acyl side, 3 side chain; on linkers, the order of the positions; unused ones are H or OH. Square brackets hold non-standard residues; d marks the D form. Peptide text beside a SMILES is read from it. * marks the point of attachment. Doxorubicin(3'-N) = COc1cccc2c1C(=O)c1c(O)c3c(c(O)c1C2=O)C[C@@](O)(C(=O)CO)C[C@@H]3O[C@H]1C[C@H](N*)[C@H](O)[C@H](C)O1; Mal(S(CH2)2NH)(CH2)5CO = O=C1CC(SCCN[*:1])C(=O)N1CCCCCC(=O)[*:2]
What was measured:
MDA-MB-231 [1] = assay: Cytotoxicity against human MDA-MB-231 cells assessed as cell viability after 48 hrs by MTT assay; type: functional, cell-based; conditions: for pIC50: MDA-MB-231, 48 h
[2] = Drug uptake in nucleus of human MDA-MB-231 cells at 10 uM after 18 hrs by DAPI staining-based confocal laser scanning microscopic analysis; type: ADME, cell-based; conditions: mda-mb-231, 18 h
[3] = Retention time of the compound treated with (6S,9S,12S,15S,18S)-1,6-diamino-12-(2-carboxyethyl)-9-(carboxymethyl)-18-(2-(1-(6-((2S,3S,4S,6R)-3-hydroxy-2-methyl-6-((1S,3S)-3,5,12-trihydroxy-3-(2-hydroxyacetyl)-10-methoxy-6,11-dioxo-1,2,3,4,6,11-hexahydrotetracen-1-yloxy)tetrahydro-2H-pyran-4-ylamino)-6-oxohexyl)-2,5-dioxopyrrolidin-3-ylthio)ethylcarbamoyl)-1-imino-15-isopropyl-7,10,13,16-tetraoxo-2,8,11,14,17-pentaazaicosan-20-oic acid at 100 uM by HPLC analysis in presence of recombinant human caspase-3; type: physicochemical
[4] = Octanol-water partition coefficient, log P of the compound at 100 ug after 3 hrs by shake-flask method; type: physicochemical
MDA-MB-231 [5] = assay: Induction of apoptosis in human MDA-MB-231 cells assessed as upregulation of cleaved caspase-3 expression after 48 hrs by Western blot analysis; type: functional, cell-based
MDA-MB-231 [6] = assay: Induction of apoptosis in human MDA-MB-231 cells assessed as downregulation of procaspase-3 expression at 1 to 100 uM after 48 hrs by Western blot analysis; type: functional, cell-based
[7] = Drug uptake in cytoplasm of human MDA-MB-231 cells at 10 uM after 18 hrs by DAPI staining-based confocal laser scanning microscopic analysis; type: ADME, cell-based; conditions: mda-mb-231, 18 h
[8] = Retention time of the compound at 100 uM after 60 mins by HPLC analysis in absence of recombinant human caspase-3; type: physicochemical; conditions: 1 h
[9] = Prodrug conversion assessed as 6-(3-(2-aminoethylthio)-2,5-dioxopyrrolidin-1-yl)-N-((2S,3S,4S,6R)-3-hydroxy-2-methyl-6-((1S,3S)-3,5,12-trihydroxy-3-(2-hydroxyacetyl)-10-methoxy-6,11-dioxo-1,2,3,4,6,11-hexahydrotetracen-1-yloxy)tetrahydro-2H-pyran-4-yl)hexanamide formation at 100 uM after 60 mins by HPLC analysis in absence of recombinant human caspase-3; type: physicochemical; conditions: 1 h
[10] = Stability of the compound at 100 uM after 60 mins by HPLC analysis in absence of recombinant human caspase-3; type: physicochemical; conditions: 1 h
Caspase-3 = target: T1, Caspase-3 (Homo sapiens, UniProt P42574); assay: Prodrug conversion assessed as recombinant human caspase-3-mediated compound 8 formation at 100 uM after 60 mins by HPLC analysis in presence of caspase-3 inhibitor Ac-DEVD-CHO; type: ADME; conditions: 1 h
T1 sequence (P42574 whole entry): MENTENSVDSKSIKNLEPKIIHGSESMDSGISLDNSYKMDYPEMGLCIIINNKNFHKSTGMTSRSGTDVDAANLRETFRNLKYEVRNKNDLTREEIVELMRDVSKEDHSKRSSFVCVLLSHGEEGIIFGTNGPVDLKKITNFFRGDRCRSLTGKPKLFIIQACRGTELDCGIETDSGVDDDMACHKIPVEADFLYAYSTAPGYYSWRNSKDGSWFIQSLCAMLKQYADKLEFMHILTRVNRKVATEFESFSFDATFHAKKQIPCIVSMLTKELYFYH

MDA-MB-231 [11] = assay: Cytotoxicity against human MDA-MB-231 cells assessed as cell viability up to 10 uM after 48 hrs by MTT assay in absence of recombinant human caspase-3; type: functional, cell-based
MDA-MB-231 [12] = assay: Cytotoxicity against human MDA-MB-231 cells assessed as cell viability at 100 uM after 48 hrs by MTT assay in absence of recombinant human caspase-3; type: functional, cell-based
MDA-MB-231 [13] = assay: Cytotoxicity against human MDA-MB-231 cells assessed as cell viability at 0.1 to 100 uM after 48 hrs by MTT assay in presence of recombinant human caspase-3; type: functional, cell-based
[14] = Drug uptake in nucleus of human MDA-MB-231 cells assessed as doxorubicin moiety level at 100 uM using cyanine5.5-labeled compound after 1 hr by DAPI staining-based confocal laser scanning microscopic analysis in presence of recombinant human caspase-3; type: ADME, cell-based; conditions: mda-mb-231, 1 h
[15] = Drug uptake in cytoplasm of human MDA-MB-231 cells assessed as DEVD moiety level at 100 uM using cyanine5.5-labeled compound after 1 hr by DAPI staining-based confocal laser scanning microscopic analysis in presence of recombinant human caspase-3; type: ADME, cell-based; conditions: mda-mb-231, 1 h
MDA-MB-231 [16] = assay: Cytotoxicity against human MDA-MB-231 cells assessed as decrease in cell viability at 5 uM with 5 Gy linear X-ray treatment after 24 hrs by MTT assay; type: functional, cell-based
MDA-MB-231 [17] = assay: Cytotoxicity against human MDA-MB-231 cells assessed as decrease in cell viability at 5 uM with 5 Gy linear X-ray treatment measured at 48 hrs by MTT assay (reference value: 53%); type: functional
[18] = Drug uptake in nucleus of human MDA-MB-231 cells assessed as doxorubicin moiety level at 5 uM preincubated for 24 hrs followed by exposure to 5 Gy linear X-ray measured at 6 hrs by DAPI staining-based fluorescence microscopic analysis; type: ADME, cell-based; conditions: mda-mb-231, 6 h
[19] = Drug uptake in nucleus of human MDA-MB-231 cells assessed as doxorubicin moiety level at 5 uM preincubated for 24 hrs followed by exposure to 5 Gy linear X-ray measured at 24 hrs by DAPI staining-based fluorescence microscopic analysis; type: ADME, cell-based; conditions: mda-mb-231, 24 h
MDA-MB-231 [20] = assay: Induction of apoptosis in human MDA-MB-231 cells assessed as change in cell morphology at 5 uM preincubated for 24 hrs followed by exposure to 5 Gy linear X-ray measured after 6 to 24 hrs by DAPI staining-based fluorescence microscopic analysis; type: functional
MDA-MB-231 [21] = assay: Induction of apoptosis in human MDA-MB-231 cells assessed as upregulation of cleaved caspase-3 expression at 1 to 100 uM pretreated with X-ray measured after 24 to 72 hrs by Western blot analysis; type: functional, cell-based
MDA-MB-231 [22] = assay: Induction of apoptosis in human MDA-MB-231 cells assessed as upregulation of cleaved caspase-3 expression preincubated with recombinant human caspase-3 measured after 48 hrs by Western blot analysis; type: functional, cell-based
MDA-MB-231 [23] = assay: Induction of apoptosis in human MDA-MB-231 cells assessed as downregulation of procaspase-3 expression at 1 to 100 uM preincubated with recombinant human caspase-3 measured after 48 hrs by Western blot analysis; type: functional, cell-based
MDA-MB-231 [24] = assay: Induction of apoptosis in human MDA-MB-231 cells assessed as upregulation of cleaved caspase-3 expression up to 100 uM after 48 hrs by Western blot analysis; type: functional, cell-based
[25] = Antitumor activity against mouse SCC7 cells allografted in Balb-c/nu mouse assessed as tumor growth inhibition at 5 mg/kg molar equivalent of doxorubicin, iv administered daily for 7 days without X-ray treatment relative to control; type: functional, SCC-7
[26] = Antitumor activity against mouse SCC7 cells allografted in Balb-c/nu mouse assessed as tumor growth inhibition at 5 mg/kg molar equivalent of doxorubicin, iv administered daily for 7 days with 10 Gy X-ray treatment on first day of drug administration (reference value: 54%); type: functional, SCC-7
Mus musculus [27] = assay: Toxicity in Balb-c/nu mouse allografted with mouse SCC7 cells assessed as decrease in body weight at 5 mg/kg molar equivalent of doxorubicin, iv administered daily for 7 days with 10 Gy X-ray treatment on first day of drug administration measured until day 14; type: organism-based, SCC-7; conditions: in vivo, 168 h
Mus musculus [28] = assay: Toxicity in Balb-c/nu mouse allografted with mouse SCC7 cells assessed as decrease in body weight at 5 mg/kg molar equivalent of doxorubicin, iv administered daily for 7 days without X-ray treatment measured until day 14; type: organism-based, SCC-7; conditions: in vivo, 168 h
Mus musculus [29] = assay: Toxicity in Balb-c/nu mouse allografted with mouse SCC7 cells assessed as mortality at 5 mg/kg molar equivalent of doxorubicin, iv administered daily for 7 days measured until day 14; type: organism-based, SCC-7; conditions: in vivo, 168 h
Mus musculus [30] = assay: Toxicity in Balb-c/nu mouse allografted with mouse SCC7 cells assessed as mortality at 5 mg/kg, iv administered daily measured within 6 days; type: organism-based, SCC-7; conditions: in vivo, 144 h

Compound: COc1cccc2c1C(=O)c1c(O)c3c(c(O)c1C2=O)C[C@@](O)(C(=O)CO)C[C@@H]3O[C@H]1CC(NC(=O)C2CCC(CN3C(=O)CC(SC[C@H](N)C(=O)O)C3=O)CC2)[C@H](O)[C@H](C)O1 (single isomer, unassigned)
Drug uptake [2]: Not Active
Drug uptake [7]: Active

Compound: COc1cccc2c1C(=O)c1c(O)c3c(c(O)c1C2=O)C[C@@](O)(C(=O)CO)C[C@@H]3O[C@H]1C[C@H](NC(=O)CCCCCN2C(=O)CC(SCCNC(=O)[C@H](CC(=O)O)NC(=O)[C@@H](NC(=O)[C@H](CCC(=O)O)NC(=O)[C@H](CC(=O)O)NC(=O)[C@@H](N)CCCNC(=N)N)C(C)C)C2=O)[C@H](O)[C@H](C)O1 (some centres not stated) (H-RDEVD[Mal(S(CH2)2NH)(CH2)5CO]-{Doxorubicin(3'-N)})
Drug uptake [2]: Active
Drug uptake [7]: Active
Retention_time [8]: 21.4 min
Drug metabolism [9]: metabolite_notdetected
Stability [10]: Unstable
Drug metabolism (Caspase-3): metabolite_notdetected
Activity (MDA-MB-231 [11]): inactive
Activity (MDA-MB-231 [12]): Active
Activity (MDA-MB-231 [13]): Active
Drug uptake [14]: Active
Drug uptake [15]: Active
Activity (MDA-MB-231 [16]): inactive
Activity (MDA-MB-231 [17]): 75%
Drug uptake [18]: Not Active
Drug uptake [19]: Active
Activity (MDA-MB-231 [20]): Active
Activity (MDA-MB-231 [21]): Active
Activity (MDA-MB-231 [22]): Dose-dependent effect
Activity (MDA-MB-231 [23]): Active
Activity (MDA-MB-231 [24]): inactive
TGI [25]: 15%
TGI [26]: 79%
Activity (Mus musculus [27]): Non-toxic
Activity (Mus musculus [28]): Non-toxic
Activity (Mus musculus [29]): Non-toxic

Compound: COc1cccc2c1C(=O)c1c(O)c3c(c(O)c1C2=O)C[C@@](O)(C(=O)CO)C[C@@H]3O[C@H]1C[C@H](NC(=O)CCCc2ccc(N3C(=O)CC(SCCN)C3=O)cc2)[C@H](O)[C@H](C)O1 (some centres not stated)
pIC50 (MDA-MB-231 [1]): < 4.00
Drug uptake [2]: Active
Drug uptake [7]: Active
logP at 3 h [4]: 0.313

Compound: COc1cccc2c1C(=O)c1c(O)c3c(c(O)c1C2=O)C[C@@](O)(C(=O)CO)C[C@@H]3O[C@H]1C[C@H](N)[C@H](O)[C@H](C)O1 [DOXORUBICIN]
Drug uptake [2]: Active
Activity (Mus musculus [30]): Toxic

The next lines start with results.

Drug uptake [2]: Active
Retention_time [3]: 20.6 min
logP at 3 h [4]: -0.383
Compound: COc1cccc2c1C(=O)c1c(O)c3c(c(O)c1C2=O)C[C@@](O)(C(=O)CO)C[C@@H]3O[C@H]1C[C@H](NC(=O)CCCCCN2C(=O)CC(SCCN)C2=O)[C@H](O)[C@H](C)O1 (some centres not stated)
pIC50 (MDA-MB-231 [1]): 5.34
Activity (MDA-MB-231 [5]): Dose-dependent effect
Activity (MDA-MB-231 [6]): Active

Drug uptake [2]: Active
Drug uptake [7]: Active
logP at 3 h [4]: -1.04
Compound: COc1cccc2c1C(=O)c1c(O)c3c(c(O)c1C2=O)C[C@@](O)(C(=O)CO)C[C@@H]3O[C@H]1C[C@H](NC(=O)CN2C(=O)CC(SCCN)C2=O)[C@H](O)[C@H](C)O1 (some centres not stated)
pIC50 (MDA-MB-231 [1]): < 4.00

Drug uptake [2]: Active
Drug uptake [7]: Active
logP at 3 h [4]: -0.121
Compound: COc1cccc2c1C(=O)c1c(O)c3c(c(O)c1C2=O)C[C@@](O)(C(=O)CO)C[C@@H]3O[C@H]1C[C@H](NC(=O)c2cccc(N3C(=O)CC(SCCN)C3=O)c2)[C@H](O)[C@H](C)O1 (some centres not stated)
pIC50 (MDA-MB-231 [1]): < 4.00

Drug uptake [2]: Active
Drug uptake [7]: Active
logP at 3 h [4]: -0.022
Compound: COc1cccc2c1C(=O)c1c(O)c3c(c(O)c1C2=O)C[C@@](O)(C(=O)CO)C[C@@H]3O[C@H]1C[C@H](NC(=O)C2CCC(CN3C(=O)CC(SCCN)C3=O)CC2)[C@H](O)[C@H](C)O1 (some centres not stated)
Activity (MDA-MB-231 [1]): Dose-dependent effect
pIC50 (MDA-MB-231 [1]): < 4.00
